{"source": "paper PMC6109769", "about": "“Calmodulin Enhances Cryptochrome Binding to INAD in Drosophila Photoreceptors” (Frontiers in Molecular Neuroscience, 2018)", "key": {"[1]": {"target": "T1, CaM (Xenopus laevis, UniProt P0DP33)", "T1 construct": "(His)6 (N); made in house; host or cells: Escherichia coli BL21", "experiment": "ITC global fit of single titrations and competition experiment (Scheme 5), 5 mM CaCl2", "type": "binding", "settings": "calculated from global fit Scheme 5", "method": "(§1) Peptide titrations were performed at 25°C using a high-sensitivity VP-isothermal titration calorimetry (ITC) microcalorimeter (MicroCal LLC, Northampton, MA, USA). The reference cell was filled with deionized water. Protein and peptide solutions were prepared by diluting concentrated stock solutions in the reaction buffer (50 mM TrisHCl, pH 7.5, 150 mM NaCl, in the absence or in the presence of 5 mM CaCl2). Apo-protein and peptide solutions were devoid of Ca^2+ ions, as determined by inductively coupled plasma emission spectroscopy, as previously described (Merloni et al., [2014]). […]\n(§2) Integrated heat data obtained for each titration were fitted using a nonlinear least-squares minimization algorithm to a theoretical titration curve, using AFFINImeter^2, using both the independent sites and the stoichiometric equilibria approach. ΔH (reaction enthalpy change, cal mol^−1) and Ka (binding constant, M^−1) were the thermodynamic fitting parameters. […] The reaction entropy was calculated using the relationships ΔG = −RTlnKa (R = 1.9872 cal mol^−1 K^−1, T = 298 K) and ΔG = ΔH − TΔS. […] The reliability of the obtained fits was evaluated using the Goodness of Fit (GoF) parameter.\nThe reaction was monitored using ITC. […]"}, "[2]": {"system": "CaM-dCRY complex", "type": "binding, Xenopus laevis", "settings": "ITC, 5 mM CaCl2; INAD peptide 800 μM over CaM 40 μM + dCRY peptide 40 μM (1:1)", "method": "Peptide titrations were performed at 25°C using a high-sensitivity VP-isothermal titration calorimetry (ITC) microcalorimeter (MicroCal LLC, Northampton, MA, USA). The reference cell was filled with deionized water. Protein and peptide solutions were prepared by diluting concentrated stock solutions in the reaction buffer (50 mM TrisHCl, pH 7.5, 150 mM NaCl, in the absence or in the presence of 5 mM CaCl2). Apo-protein and peptide solutions were devoid of Ca^2+ ions, as determined by inductively coupled plasma emission spectroscopy, as previously described (Merloni et al., [2014]). Each experiment started with a small injection of 1–2 μL, which was discarded from the analysis of the integrated data, in order to avoid artifacts due to the diffusion through the injection port occurring during the long equilibration period, locally affecting the protein concentration near the syringe needle tip. Care was taken to start the first addition after baseline stability had been achieved. […] To allow the system to reach equilibrium, a spacing of 300 s was applied between each ligand injection.\nThe reaction was monitored using ITC. […] A fit of the integrated heat data, however, is quite complex, as the binding curve represents the sum of the contributions of the multiple binding isotherms deriving from the different equilibria involved. […]"}, "[3]": {"target": "T1, CaM", "experiment": "ITC titration of peptide into Ca2+-loaded CaM (5 mM CaCl2), single-curve fits", "type": "binding", "settings": "calculated, T = 298 K", "method": "as §1, §2"}}}
{"smiles": "CC[C@H](C)[C@H](NC(=O)[C@H](CCCCN)NC(=O)[C@H](C)NC(=O)[C@H](CCSC)NC(=O)[C@@H](NC(=O)[C@H](Cc1ccc(O)cc1)NC(=O)CNC(=O)[C@H](Cc1ccccc1)NC(C)=O)[C@@H](C)O)C(=O)N[C@@H](CC(N)=O)C(=O)N[C@@H](CCCCN)C(=O)N[C@@H](CCCNC(=N)N)C(=O)N[C@@H](Cc1ccc(O)cc1)C(=O)N[C@@H](CC(N)=O)C(=O)N[C@@H](CCSC)C(N)=O", "note": "[INAD230–243]", "values": [{"measurement": "ΔSINAD, global fit", "setting": "[1]", "value": "+4.42 cal mol^−1 K^−1"}, {"measurement": "heat of reaction on titration of INAD over CaM preincubated with dCRY", "setting": "[2]", "value": "absence of significant heat of reaction"}, {"measurement": "ΔS (INAD)", "setting": "[3]", "value": "−11.3", "unit": "cal mol^−1 K^−1"}]}
